Experimental data taken from patent US5968910A, “Compositions containing two or three inhibitors of different HIV reverse transcriptases” (priority 1994, dated 1999).
Where two headings read alike, the source gives them in different places.

System: HIV-1
Experiment: Breakthrough of mutant HIV-1 strains in CEM cell cultures, single drugs and double/triple combinations
Assay type: cell-based
Settings: for activity at 0.04 µg/mL / activity at 0.1 µg/mL / activity at 0.25 µg/mL: Human immunodeficiency virus 1, CCRF-CEM, read-out: HIV-1-induced syncytium formation in CEM cells; for activity at 0.04 µg/mL: single drug 0.04 μg/ml; for activity at 0.1 µg/mL: single drug 0.10 μg/ml; for activity at 0.25 µg/mL: single drug 0.25 μg/ml
Experimental: The culture medium consisted of RPMI 1640 containing 10% fetal bovine serum, 2 mM L-glutamine, and 0.075% NaHCO3. The multiplicity of the initial infection was ~1000 times the CCID50 (50% cell culture infective dose). Passages were performed every 3 to 4 days by adding 0.5 to 1.0 ml of the infected culture supernatant to 5 ml of a suspension containing 4×10^5 uninfected CEM cells per ml. Syncytium formation was used as a parameter of virus breakthrough in the cell cultures. In the drug combination experiments, the compounds were combined at the same initial concentrations as used for the two lowest concentrations in the single-drug experiments.
Compound IV, BHAP and TSAO-m^3 T were added to HIV-1-infected CEM cell cultures at 0.04, 0.10 and 0.25 ug/ml (Compound IV and BHAP) or 1.0, 2.5 and 5.0 μg/ml (TSAO-m^3 T). In addition, various double- and triple-drug combinations of Compound IV, BHAP and TSAO-m^3 T were performed, combining these inhibitors at their lowest (0.04 μg/ml) or intermediary (0.1 μg/ml) concentration as used in the single-drug experiments.

## Cc1occc1C(=S)Nc1ccc(Cl)c(C(=O)OC2CCCC2)c1 [Compound IV]
96 h, day 4 post infection
  activity at 0.04 µg/mL: 0%
  activity at 0.1 µg/mL: 0%
  activity at 0.25 µg/mL: 0%
168 h, day 7 post infection
  activity at 0.04 µg/mL: 0%
  activity at 0.1 µg/mL: 0%
  activity at 0.25 µg/mL: 0%
264 h, day 11 post infection
  activity at 0.04 µg/mL: 6.25%
  activity at 0.1 µg/mL: 0%
  activity at 0.25 µg/mL: 0%
336 h, day 14 post infection
  activity at 0.04 µg/mL: 12.5%
  activity at 0.1 µg/mL: 6.25%
  activity at 0.25 µg/mL: 0%
432 h, day 18 post infection
  activity at 0.04 µg/mL: 100%
  activity at 0.1 µg/mL: 6.25%
  activity at 0.25 µg/mL: 0%
504 h, day 21 post infection
  activity at 0.04 µg/mL: 100%
  activity at 0.1 µg/mL: 87.5%
  activity at 0.25 µg/mL: 3.12%
600 h, day 25 post infection
  activity at 0.04 µg/mL: 100%
  activity at 0.1 µg/mL: 87.5%
  activity at 0.25 µg/mL: 19%
672 h, day 28 post infection
  activity at 0.04 µg/mL: 100%
  activity at 0.1 µg/mL: 100%
  activity at 0.25 µg/mL: 75%
768 h, day 32 post infection
  activity at 0.04 µg/mL: 100%
  activity at 0.1 µg/mL: 100%
  activity at 0.25 µg/mL: 100%
840 h, day 35 post infection
  activity at 0.04 µg/mL: 100%
  activity at 0.1 µg/mL: 100%
  activity at 0.25 µg/mL: 100%
936 h, day 39 post infection
  activity at 0.04 µg/mL: 100%
  activity at 0.1 µg/mL: 100%
  activity at 0.25 µg/mL: 100%
1008 h, day 42 post infection
  activity at 0.04 µg/mL: 100%
  activity at 0.1 µg/mL: 100%
  activity at 0.25 µg/mL: 100%
1104 h, day 46 post infection
  activity at 0.04 µg/mL: 100%
  activity at 0.1 µg/mL: 100%
  activity at 0.25 µg/mL: 100%
1176 h, day 49 post infection
  activity at 0.04 µg/mL: 100%
  activity at 0.1 µg/mL: 100%
  activity at 0.25 µg/mL: 100%
1272 h, day 53 post infection
  activity at 0.04 µg/mL: 100%
  activity at 0.1 µg/mL: 100%
  activity at 0.25 µg/mL: 100%
1344 h, day 56 post infection
  activity at 0.04 µg/mL: 100%
  activity at 0.1 µg/mL: 100%
  activity at 0.25 µg/mL: 100%
1440 h, day 60 post infection
  activity at 0.04 µg/mL: 100%
  activity at 0.1 µg/mL: 100%
  activity at 0.25 µg/mL: 100%
1536 h, day 64 post infection
  activity at 0.04 µg/mL: 100%
  activity at 0.1 µg/mL: 100%
  activity at 0.25 µg/mL: 100%
1608 h, day 67 post infection
  activity at 0.04 µg/mL: 100%
  activity at 0.1 µg/mL: 100%
  activity at 0.25 µg/mL: 100%
1704 h, day 71 post infection
  activity at 0.04 µg/mL: 100%
  activity at 0.1 µg/mL: 100%
  activity at 0.25 µg/mL: 100%
1776 h, day 74 post infection
  activity at 0.04 µg/mL: 100%
  activity at 0.1 µg/mL: 100%
  activity at 0.25 µg/mL: 100%
1848 h, day 77 post infection
  activity at 0.04 µg/mL: 100%
  activity at 0.1 µg/mL: 100%
  activity at 0.25 µg/mL: 100%
Single drug, highest concentration
  virus breakthrough delayed till day: 21 days
